Values of other authors in US11701318B2, “Process of dyeing keratinous material comprising the use of an organosilicon compound, an effect pigment, and a film-forming polymer I” (Henkel AG & Co. KGaA, priority 2019, dated 2023).

Settings: 25° C.

Compound | solubility in water | solubility in water (in words)
O=C([O-])C1=NN(c2ccc(S(=O)(=O)[O-])cc2)C(=O)C1N=Nc1ccc(S(=O)(=O)[O-])cc1.[Na+].[Na+].[Na+] (stereo not drawn) [Acid Yellow 23, trisodium salt of 4,5-dihydro-5-oxo-1-(4-sulfophenyl)-4-((4-sulfophenyl)azo)-1H-pyrazole-3-carboxylic acid] |  | highly soluble in water
O=S(=O)([O-])c1ccc(N=Nc2c(O)ccc3ccccc23)cc1.[Na+] [Acid Orange 7, sodium salt of 4-[(2-hydroxy-1-naphthyl)azo]benzene sulphonate] | more than 7 g/L | 
CCN(Cc1cccc(S(=O)(=O)[O-])c1)c1ccc(C(=C2C=CC(=[N+](CC)Cc3cccc(S(=O)(=O)[O-])c3)C=C2)c2ccccc2S(=O)(=O)[O-])cc1.[Na+].[Na+] [Acid Blue 9] | more than 20 % by weight | 
O=C([O-])c1c(Cl)c(Cl)c(Cl)c(Cl)c1-c1c2c(Br)cc(=O)c(Br)c-2oc2c(Br)c(O)cc(Br)c12.O=C([O-])c1c(Cl)c(Cl)c(Cl)c(Cl)c1-c1c2c(Br)cc(=O)c(Br)c-2oc2c(Br)c(O)cc(Br)c12.[Na+].[Na+] [Acid Red 92, disodium salt of 3,4,5,6-tetrachloro-2-(1,4,5,8-tetrabromo-6-hydroxy-3-oxoxanthen-9-yl)benzoic acid] | greater than 10 g/L | 

Second part, the compound after the results:

solubility in water | solubility in water (in words) | Compound
2.5 mg/mL |  | Nc1cc(S(=O)(=O)[O-])cc2cc(S(=O)(=O)[O-])c(N=Nc3ccccc3)c(O)c12.[Na+].[Na+] [Acid Red 33, disodium salt of 5-amino-4-hydroxy-3-(phenylazo)-naphthalene-2,7-disulphonate]
20 mg/mL |  | mixture of the sodium salts of mono- and disulfonic acids of 2-(2-quinolyl)-1H-indene-1,3(2H)-dione [Acid Yellow 3]
